The source of these data is patent US20150289518A1, “COMPOSITION COMPRISING A BIOLOGICAL CONTROL AGENT AND AN INSECTICIDE” (BAYER CROPSCIENCE AG, priority 2012, published 2015).

Holding throughout (type): in vivo
The test system of experiment [1] is green peach aphid (Myzus persicae). Briefly: Myzus persicae spray test. The following applies: mortality. How it is done:
(§1) Formula for the efficacy of the combination of two compounds • The expected efficacy of a given combination of two compounds is calculated as follows (see Colby, S. R., “Calculating Synergistic and antagonistic Responses of Herbicide Combinations”, Weeds 15, pp. 20-22, 1967):
(§2) • X is the efficacy expressed in % mortality of the untreated control for test compound A at a concentration of m ppm respectively m g/ha, • Y is the efficacy expressed in % mortality of the untreated control for test compound B at a concentration of n ppm respectively n g/ha, • E is the efficacy expressed in % mortality of the untreated control using the mixture of A and B at m and n ppm respectively m and n g/ha,
(§3) If the observed insecticidal efficacy of the combination is higher than the one calculated as “E”, then the combination of the two compounds is more than additive, i.e., there is a synergistic effect.
• Solvent: 78.0 parts by weight acetone • 1.5 parts by weight dimethylformamide • Emulsifier: alkylaryl polyglycol ether […]
(§4) After the specified period of time, mortality in % is determined. […] The mortality values determined thus are recalculated using the Colby-formula (see sheet 1).

In experiment [2] the test system is mustard beetle larvae (Phaedon cochleariae). Put plainly: Phaedon cochleariae spray test. The conditions noted are these: mortality, Chinese cabbage leaf disks sprayed. How it is done: as §1, §2, §3
• Solvent: 78.0 parts by weight of acetone • 1.5 parts by weight of dimethylformamide • Emulsifier: alkylaryl polyglycol ether […]
as §4

The subject of experiment [3] is southern root-knot nematode (Meloidogyne incognita). Briefly: Meloidogyne incognita test (MELGIN). The following applies: nematicidal activity by gall formation on salad roots, 0.08 ppm. How it is done:
as §1, §2, §3
• Solvent: 125.0 parts by weight of acetone
To produce a suitable preparation of active compound, 1 part by weight of active compound is mixed with the stated amount of solvent, and the concentrate is diluted with water to the desired concentration. […]
After the specified period the nematicidal activity is determined on the basis of the percentage of gall formation. […] The values determined thus are recalculated using the Colby-formula (see sheet 1).

Take `N#Cc1nn(-c2c(Cl)cc(C(F)(F)F)cc2Cl)c(N)c1[S+]([O-])C(F)(F)F` (centres unmarked) [Fipronil]: the “Efficacy in % after 6d” value in experiment [1] (0.8 g ai/ha, test 2, 6 d) is recorded as 0%; in experiment [2] (0.8 g ai/ha), 0%. For the same molecule, in experiment [1] (4 g ai/ha, test 1, 1 d), the “Efficacy in % after 1d” value is reported as 0%.
As to Abamectin, the “Efficacy in % after 6d” value in experiment [2] (0.2 g ai/ha) is 0%. For the same molecule, the “Efficacy in % after 14d” value in experiment [3] is listed as 0%.
